Each compound was assayed against human ATX (Homo sapiens (Human), UniProt Q13822) (assay: Human ATX enzyme inhibition assay (fluorescence quenching, MR121 substrate)). Details: human His-tagged ATX 30 nM, MR121 substrate 1 μM, 30° C.
Assay type: biochemical
Protocol: Human ATX Enzyme Inhibition Assay
ATX inhibition was measured by a fluorescence quenching assay using a specifically labeled substrate analogue (MR121 substrate). To obtain this MR121 substrate, BOC and TBS protected 6-amino-hexanoic acid (R)-3-({2-[3-(2-{2-[2-(2-amino-ethoxy)-ethoxy]-ethoxy}-ethoxy)-propionylamino]-ethoxy}-hydroxy-phosphoryloxy)-2-hydroxy-propyl ester (Ferguson et al., Org Lett 2006, 8 (10), 2023) was labeled with MR121 fluorophore (CAS 185308-24-1, 1-(3-carboxypropyl)-11-ethyl-1,2,3,4,8,9,10,11-octahydro-dipyrido[3,2-b:2′,3′-i]phenoxazin-13-ium) on the free amine of the ethanolamine side and then, after deprotection, subsequently with tryptophan on the side of the aminohexanoic acid.
Assay working solutions were made as follows:
Assay buffer (50 mM Tris-HCl, 140 mM NaCl, 5 mM KCl, 1 mM CaCl2, 1 mM MgCl2, 0.01% Triton-X-100, pH 8.0;
ATX solution: ATX (human His-tagged) stock solution (1.08 mg/mL in 20 mM bicine, pH 8.5, 0.15 M NaCl, 10% glycerol, 0.3% CHAPS, 0.02% NaN3), diluted to 1.4-2.5× final concentration in assay buffer;
MR121 substrate solution: MR121 substrate stock solution (800 μM MR121 substrate in DMSO), diluted to 2-5× final concentration in assay buffer.
Test compounds (10 mM stock in DMSO, 8 μL) were obtained in 384 well sample plates (Corning Costar #3655) and diluted with 8 μL DMSO. Row-wise serial dilutions were made by transferring 8 μL cpd solution to the next row up to row O. The compound and control solutions were mixed five times and 2 μL were transferred to 384 well assay plates (Corning Costar #3702). Then, 15 μL of 41.7 nM ATX solution was added (30 nM final concentration), mixed five times and then incubated for 15 minutes at 30° C. 10 μL of MR121 substrate solution was added (1 μM final concentration), mixed 30 times and then incubated for 15 minutes at 30° C.

| Structure (SMILES) | IC50 [nM] |
| --- | --- |
| Cn1c(COc2cc(C(N)=O)ccc2C(C)(C)C)n[nH]c1=O [Example A25] | 958 |
| Cn1c(COc2cc(C#N)ccc2C(C)(C)C)n[nH]c1=O [Example A24] | 91 |
| Cc1cc(OCc2n[nH]c3nc(NCCO)ncc23)c(C(C)(C)C)cc1C#N [Example D35] | 9 |
| Cc1cc(C(C)C)c(OCc2ccc(=O)[nH]n2)cc1Cl [Example C4, 3-[(5-chloro-4-methyl-2-propan-2-ylphenoxy)methyl]-1H-pyridazin-6-one] | 3 |
| Cn1c(COc2ccc(-c3ncco3)cc2C(C)(C)C)n[nH]c1=O [Example A7] | 13 |
| Cc1cc(OCc2n[nH]c3cccnc23)c(C(C)(C)C)cc1Cl [Example D23] | 21 |
| Cc1cc(OCc2n[nH]c(=O)n2C)c(C(C)(C)C)cc1Cl [Example A1, 3-[(2-tert-Butyl-4-chloro-5-methylphenoxy)methyl]-4-methyl-1H-1,2,4-triazol-5-one] | 2 |
| Cc1nnc(-c2ccc(OCc3n[nH]c(=O)n3C)c(C(C)(C)C)c2)o1 [Example A10] | 104 |
| Cn1c(COc2cc(Cl)c(C#N)cc2-c2ccccc2)n[nH]c1=O [Example B31] | 43 |
| Cc1cc(OCc2n[nH]c3ncccc23)c(-c2cc(C(=O)N3CCN(C)C(=O)C3)ccc2F)cc1Cl [Example D39] | 8 |
| CNC(=O)c1cccc(-c2cc(C#N)c(Cl)cc2OCc2n[nH]c(=O)n2C)c1 [Example B33] | 115 |
| Cn1ccnc1-c1ccc(OCc2n[nH]c(=O)n2C)c(C(C)(C)C)c1 [Example A6] | 523 |
| Cc1cc(OCc2n[nH]c(=O)n2C)c(-c2cccc(C(=O)Nc3ccccc3)c2)cc1Cl [Example B13] | 6 |
| N#Cc1cc(-c2cc(C(=O)N3CCCC3)ccc2F)c(OCc2n[nH]c3ncccc23)cc1Cl [Example D43] | 7 |
| CN(CCO)c1ccc2c(COc3cc(F)c(Cl)cc3C(C)(C)C)n[nH]c2n1 [Example D14] | 13 |
| Cc1cc(OCc2n[nH]c3ncccc23)c(-c2cccc(C(=O)N(C)C)c2)cc1Cl [Example D18] | 17 |
| CC(=O)N1CCc2c(COc3cc(C)c(Cl)cc3C(C)(C)C)n[nH]c2C1 [Example E5, 1-(3-((2-tert-Butyl-4-chloro-5-methylphenoxy)methyl)-4,5-dihydro-1H-pyrazolo[3,4-c]pyridin-6(7H)-yl)ethanone] | 17 |
| Cc1cc(OCc2ccc(=O)[nH]n2)c(-c2cccnc2O)cc1Cl [Example C11] | 5980 |
| Cc1cc(OCc2n[nH]c(=O)n2C(C)C)c(C(C)(C)C)cc1C#N [Example A26, 5-tert-Butyl-2-methyl-4-[(5-oxo-4-propan-2-yl-1H-1,2,4-triazol-3-yl)methoxy]benzonitrile] | 12 |

| Structure (SMILES) | IC50 [nM] |
| --- | --- |
| Cc1cc(OCc2n[nH]c3nc(OCC(O)CO)ccc23)c(C(C)(C)C)cc1Cl (centres unmarked) [Example D15, 3-[[3-[(2-tert-Butyl-4-chloro-5-methylphenoxy)methyl]-1H-pyrazolo[3,4-b]pyridin-6-yl]oxy]propane-1,2-diol] | 6 |
| Cc1cc(OCc2ccc(=O)[nH]n2)c(C(C)C)cc1Cl [Example C1, 3-[(4-Chloro-5-methyl-2-propan-2-ylphenoxy)methyl]-1H-pyridazin-6-one] | 19 |
| CC(C)c1cc(Cl)c(F)cc1OCc1ccc(=O)[nH]n1 [Example C3, 3-[(4-chloro-5-fluoro-2-propan-2-ylphenoxy)methyl]-1H-pyridazin-6-one] | 4 |
| COC(=O)c1cc(COc2cc(C)c(Cl)cc2C(C)(C)C)n[nH]1 [Example F3, Methyl 3-((2-(tert-butyl)-4-chloro-5-methylphenoxy)methyl)-1H-pyrazole-5-carboxylate] | 10 |
| N#Cc1cc(-c2cc(OC(F)(F)F)ccc2F)c(OCc2n[nH]c3ccncc23)cc1Cl [Example D54] | 28 |
| Cn1c(COc2cc(Cl)c(C#N)cc2-c2ccc(F)cc2)n[nH]c1=O [Example B32] | 31 |
| Cc1cc(OCc2ccc(=O)[nH]n2)c(C2CCC2)cc1Cl [Example C5, 3-[(4-chloro-2-cyclobutyl-5-methylphenoxy)methyl]-1H-pyridazin-6-one] | 1 |
| Cn1c(COc2ccc(N3CCOCC3)cc2C(C)(C)C)n[nH]c1=O [Example A8] | 1600 |
| Cn1c(COc2ccc(S(C)(=O)=O)cc2C(C)(C)C)n[nH]c1=O [Example A15] | 230 |
| Cc1cc(OCc2n[nH]c3nc(OCC(O)CO)ncc23)c(C(C)(C)C)cc1Cl (centres unmarked) [Example D34, 3-[[3-[(2-tert-Butyl-4-chloro-5-methylphenoxy)methyl]-1H-pyrazolo[3,4-d]pyrimidin-6-yl]oxy]propane-1,2-diol] | 2 |
| Cc1cc(OCc2n[nH]c3ncccc23)c(-c2ccno2)cc1Cl [Example D5] | 1 |
| CC(C)c1cc(Cl)ccc1OCc1n[nH]c(=O)n1C [Example A29] | 50 |
| COc1ncccc1-c1cc(Cl)c(C)cc1OCc1n[nH]c2c1CCNC2 [Example E7, 3-((4-Chloro-2-(2-methoxypyridin-3-yl)-5-methylphenoxy)methyl)-4,5,6,7-tetrahydro-1H-pyrazolo[3,4-c]pyridine] | 202 |
| Cc1cc(OCc2n[nH]c3cccnc23)c(-c2cccc(C(=O)N(C)C)c2)cc1Cl [Example D24] | 99 |
| Cc1cc(OCc2n[nH]c3ccccc23)c(-c2cc(C(=O)N3CCN(C)C(=O)C3)ccc2F)cc1Cl [Example D41] | 7 |
| COc1ncccc1-c1cc(Cl)c(C)cc1OCc1n[nH]c2ncccc12 [Example D20] | 22 |
| Cc1cc(OCc2n[nH]c3ccccc23)c(C(C)(C)C)cc1S(C)(=O)=O [Example D10] | > 82000 |
| Cc1cc(OCc2n[nH]c3nc(N4CC(O)C4)ncc23)c(C(C)(C)C)cc1Cl [Example D29] | 10 |
| Cc1cc(OCc2n[nH]c(=O)n2C)c(C(C)C)cc1Cl [Example A28] | 5 |

Now from value to compound:

| IC50 [nM] | Structure (SMILES) |
| --- | --- |
| 3 | Cc1cc(OCc2n[nH]c(=O)n2C)c(-c2cccc(C#N)c2)cc1Cl [Example B5] |
| 16 | COCCNC(=O)c1cccc(-c2cc(Cl)c(C)cc2OCc2n[nH]c(=O)n2C)c1 [Example B17] |
| 6 | Cc1cc(OCc2n[nH]c(=O)n2C)c(-c2cc(OCC3CCOC3)ccc2F)cc1Cl (centres unmarked) [Example B67] |
| 8 | COCC(=O)NCc1ccc(F)c(-c2cc(Cl)c(C)cc2OCc2n[nH]c(=O)n2C)c1 [Example B83] |
| 3 | Cc1cc(OCc2n[nH]c(=O)n2C)c(-c2ccccc2)cc1Cl [Example B1, 3-[(4-Chloro-5-methyl-2-phenylphenoxy)methyl]-4-methyl-1H-1,2,4-triazol-5-one] |
| 913 | Cc1cc(OCc2n[nH]c(=O)n2C)c(-c2cncc(C(N)=O)c2)cc1Cl [Example B20] |
| 8 | Cc1cc(OCc2n[nH]c(=O)n2C)c(-c2cccc(S(C)(=O)=O)c2)cc1Cl [Example B6] |
| 192 | Cc1cc(OCc2n[nH]c(=O)n2C)c(-c2cccc(C(=O)NCC(=O)O)c2)cc1Cl [Example B48] |
| 15 | Cc1cc(OCc2n[nH]c(=O)n2C)c(-c2cc(C(=O)N3CCOCC3)ccc2F)cc1Cl [Example B40] |
| 93 | CN(C)C(=O)c1cccc(-c2cc(C#N)c(Cl)cc2OCc2n[nH]c(=O)n2C)c1 [Example B39] |
| 21 | Cc1cc(OCc2n[nH]c(=O)n2C)c(-c2cc(C(=O)N(C)CCO)ccc2F)cc1Cl [Example B64] |
| 1 | Cc1cc(OCc2n[nH]c(=O)n2C)c(-c2cc(OC3CC3)ccc2F)cc1Cl [Example B92] |
| 29 | Cc1cc(OCc2n[nH]c(=O)n2C)c(-c2cccc(C(=O)N(C)CCO)c2)cc1Cl [Example B45, 3-[5-Chloro-4-methyl-2-[(4-methyl-5-oxo-1H-1,2,4-triazol-3-yl)methoxy]phenyl]-N-(2-hydroxyethyl)-N-methylbenzamide] |
| 5 | Cn1c(COc2cc(Cl)c(C#N)cc2-c2cc(Cl)ccc2F)n[nH]c1=O [Example B93] |
| 104 | COc1cccc(-c2cc(Cl)c(C)cc2OCc2n[nH]c(=O)n2C)n1 [Example B21] |
| 9 | CCOc1ccc(F)c(-c2cc(Cl)c(C)cc2OCc2n[nH]c(=O)n2C)c1 [Example B55] |
| 9 | Cc1cc(OCc2n[nH]c3ncccc23)c(-c2cc(C(=O)N(C)C)ccc2F)cc1Cl [Example D21] |
| 4200 | Cc1cc(OCc2n[nH]c(=O)n2C)c(-c2ccccc2S(C)(=O)=O)cc1Cl [Example B7] |
| 22 | Cc1cc(OCc2n[nH]c(=O)n2C)c(-c2cccc(C(=O)N(C)C)c2)cc1Cl [Example B12] |
| 5 | Cn1c(COc2cc(Cl)c(C#N)cc2-c2cc(F)ccc2F)n[nH]c1=O [Example B94] |
| 82 | Cc1cc(OCc2n[nH]c(=O)n2C)c(-c2cccc(C(=O)NCCC(=O)O)c2)cc1Cl [Example B47] |
